This note sets out measurements from publication PMC5014630 (Molecular pharmaceutics, 2016).

The test system of series [1] is iPSC-derived BMECs. The series is described as follows: Permeability across iPSC-derived BMEC Transwell in vitro BBB model. The settings on record: for permeability (Pe) across iPSC-BMEC: Transwell, APC analogs 1 μM in PM20, 2 hours, mean±S.E., n≥3.
Series [2] relates to iPSC-derived BMECs. Nature of the series: Temperature dependence of permeability. It counts as in vitro ADME, human. Particulars: normalized to 37°C condition; Student's t-test.
The subject of series [3] is iPSC-derived BMECs. Nature of the series: Directional. In kind it is in vitro ADME, human. Particulars: normalized to AB permeability; Student's t-test.
Series [4] can be described thus: Experimental octanol/water LogD. It counts as physicochemical. Particulars: pH 7.4, octanol:buffer.
Series [5] addresses T1, BCRP (Homo sapiens, UniProt Q9UNQ0).
T1 sequence (Q9UNQ0 1-655): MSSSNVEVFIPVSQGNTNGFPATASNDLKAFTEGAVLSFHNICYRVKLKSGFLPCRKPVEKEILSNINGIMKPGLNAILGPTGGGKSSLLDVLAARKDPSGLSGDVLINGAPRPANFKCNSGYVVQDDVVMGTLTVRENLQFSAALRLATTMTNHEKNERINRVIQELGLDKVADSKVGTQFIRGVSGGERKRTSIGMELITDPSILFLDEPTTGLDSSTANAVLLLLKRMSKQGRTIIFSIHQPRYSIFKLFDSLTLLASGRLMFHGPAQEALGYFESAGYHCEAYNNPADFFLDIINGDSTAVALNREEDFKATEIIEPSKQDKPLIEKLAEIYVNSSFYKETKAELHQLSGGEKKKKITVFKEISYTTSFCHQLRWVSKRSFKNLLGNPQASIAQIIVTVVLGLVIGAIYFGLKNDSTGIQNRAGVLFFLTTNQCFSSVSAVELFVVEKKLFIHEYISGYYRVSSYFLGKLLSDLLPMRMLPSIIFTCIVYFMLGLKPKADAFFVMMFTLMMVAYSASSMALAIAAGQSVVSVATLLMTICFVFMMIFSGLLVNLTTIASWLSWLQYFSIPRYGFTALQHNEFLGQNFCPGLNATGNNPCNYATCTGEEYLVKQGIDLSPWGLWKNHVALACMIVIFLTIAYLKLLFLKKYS
Nature of the series: Permeability with BCRP inhibitor Ko143 in iPSC-derived BMEC. In kind it is in vitro ADME. The settings on record: 1 μM Ko143, 60 min pre-incubation; normalized to no inhibitor.

Series [6] has as its system MRPs. The series is described as follows: Permeability with pan-MRP inhibitor MK571 in iPSC-derived BMEC. It counts as in vitro ADME, human. Particulars: 10 μM MK571, 60 min pre-incubation; normalized to no inhibitor.
Series [7] is described as follows: Permeability across iPSC-derived BMEC Transwell in vitro BBB model. The settings on record: human.
The target of series [8] is P-gp (Homo sapiens, UniProt P08183). Nature of the series: Permeability with P-gp inhibitor PSC833 in iPSC-derived BMEC. It counts as in vitro ADME. Particulars: 1 μM PSC833, 60 min pre-incubation; normalized to no inhibitor.
Sequence of P-gp (P08183 whole entry): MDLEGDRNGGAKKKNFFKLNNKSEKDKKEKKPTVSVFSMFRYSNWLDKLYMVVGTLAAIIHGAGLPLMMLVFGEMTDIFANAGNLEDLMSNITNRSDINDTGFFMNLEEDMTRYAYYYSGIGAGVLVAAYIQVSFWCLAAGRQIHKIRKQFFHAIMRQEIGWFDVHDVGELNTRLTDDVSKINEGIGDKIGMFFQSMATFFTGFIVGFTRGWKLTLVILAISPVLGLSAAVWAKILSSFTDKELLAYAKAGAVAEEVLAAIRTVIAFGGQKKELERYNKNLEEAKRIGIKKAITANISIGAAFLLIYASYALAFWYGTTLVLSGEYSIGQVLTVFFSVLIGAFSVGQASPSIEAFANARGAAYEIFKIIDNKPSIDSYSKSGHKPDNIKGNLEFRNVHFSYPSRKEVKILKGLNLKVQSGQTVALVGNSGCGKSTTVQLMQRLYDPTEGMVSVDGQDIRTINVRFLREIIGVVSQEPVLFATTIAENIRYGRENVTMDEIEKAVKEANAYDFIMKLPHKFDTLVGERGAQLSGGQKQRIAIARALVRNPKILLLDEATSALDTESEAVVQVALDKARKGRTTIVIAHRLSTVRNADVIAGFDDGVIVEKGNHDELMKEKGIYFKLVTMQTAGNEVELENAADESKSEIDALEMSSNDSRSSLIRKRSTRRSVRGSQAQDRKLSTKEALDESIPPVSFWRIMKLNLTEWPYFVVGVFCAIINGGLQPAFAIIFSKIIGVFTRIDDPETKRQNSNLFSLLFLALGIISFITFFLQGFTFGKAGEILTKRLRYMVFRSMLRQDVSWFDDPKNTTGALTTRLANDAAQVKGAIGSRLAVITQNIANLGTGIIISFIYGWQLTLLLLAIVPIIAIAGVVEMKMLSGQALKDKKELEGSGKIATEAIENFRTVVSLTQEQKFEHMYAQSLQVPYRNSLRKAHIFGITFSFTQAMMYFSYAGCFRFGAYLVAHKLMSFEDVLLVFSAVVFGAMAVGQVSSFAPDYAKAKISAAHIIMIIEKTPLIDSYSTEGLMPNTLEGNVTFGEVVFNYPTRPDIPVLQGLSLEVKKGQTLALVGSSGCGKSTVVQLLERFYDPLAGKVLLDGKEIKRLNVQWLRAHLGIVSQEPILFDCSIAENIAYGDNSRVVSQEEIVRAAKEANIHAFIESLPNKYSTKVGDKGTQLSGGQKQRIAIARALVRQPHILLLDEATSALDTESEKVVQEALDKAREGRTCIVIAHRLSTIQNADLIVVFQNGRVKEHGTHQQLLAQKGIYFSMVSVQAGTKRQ

For the molecule `CN1/C(=C/C=C2\CCCC(/C=C/C3=[N+](C)c4ccccc4C3(C)C)=C2c2ccc(CCCCCCCCCCCCCCCCCCOP(=O)([O-])OCC[N+](C)(C)C)cc2)C(C)(C)c2ccccc21.[Cl-]` [CLR1502], in series [1], the “permeability (Pe) across iPSC-BMEC” value is 26±4.9 ×10^−5 cm/min. In series [1] (iPSC-derived BMEC Transwell, p<0.05), the “fold reduced permeability compared with CLR1501” value was 2 fold. Further, in series [2], the “in vitro BBB permeability at 4°C compared to 37°C” value was “significantly higher”. In addition, in series [3], the “polarized flux, basolateral-apical (BA) vs apical-basolateral (AB)” value (“polarized flux … vs apical-basolateral (AB)” below) is on record as “significantly polarized flux in the brain-to-blood (BA) direction”. Further, in series [4], the “fold increase of experimental LogD compared to parent CLR1404” value is “greater than 2 fold”. In addition, in series [5], the “permeability change with Ko143 (BCRP inhibition)” value is “A similar pattern was observed”. In addition, the “permeability change with MK571 (MRP inhibition)” value in series [6] is “A similar pattern was observed”.
`C[N+](C)(C)CCOP(=O)([O-])OCCCCCCCCCCCCCCCCCCc1ccc(I)cc1` [CLR1404, 18-(p-iodophenyl) octadecylphosphocholine] showed a Papp at 2 h, 1 μM in series [7] of 5.83 ×10⁻⁶ cm/s. Moreover, the “in vitro BBB permeability at 4°C compared to 37°C” value in series [2] is “slight, but statistically insignificant, increase”. The “polarized flux … vs apical-basolateral (AB)” value in series [3] was “no significant evidence of polarized efflux”. For the same molecule, the “permeability change with Ko143 (BCRP inhibition)” value in series [5] is “did not affect”. Moreover, the “permeability change with MK571 (MRP inhibition)” value in series [6] was “did not affect”. For the same molecule, the “permeability change with PSC833 (P-gp inhibition)” value in series [8] was “did not affect”.
Turning to `C[N+](C)(C)CCOP(=O)([O-])OCCCCCCCCCCCCCCCCCCc1ccc(C2=C3C=CC=[N+]3[B-](F)(F)n3cccc32)cc1` [CLR1501], in series [1], the “permeability (Pe) across iPSC-BMEC” value is 54±3.2 ×10^−5 cm/min. In series [2], the “in vitro BBB permeability at 4°C compared to 37°C” value was “significantly higher”. For the same molecule, the “polarized flux … vs apical-basolateral (AB)” value in series [3] is on record as “significantly polarized flux in the brain-to-blood (BA) direction”. Moreover, the “fold increase of experimental LogD compared to parent CLR1404” value in series [4] is recorded as “greater than 2 fold”. Moreover, the “permeability change with Ko143 (BCRP inhibition)” value in series [5] is on record as “selectively increased”. Moreover, the “permeability change with MK571 (MRP inhibition)” value in series [6] was “selectively increased”.

In general, Papp refers to the rate of passage across a membrane or cell layer, normalised by area and donor concentration. The low end stands for poor permeation, the high end for ready permeation.
